Measured values: ChEMBL document CHEMBL5107965, “The progress of small-molecules and degraders against BCR-ABL for the treatment of CML” (Eur J Med Chem, 2022)
pIC50: −log10 of the molar value. Values after ≈ are worked out from the molar mass of the structure shown. One block for each compound: values may come before it.

Tests used:
[1] = target: Bcr/Abl fusion protein (Homo sapiens, UniProt P00519); test: Inhibition of BCR-ABL (unknown origin); type: protein assay
[2] = tested on: K562; test: Antiproliferative activity against human K562 cells assessed as cell growth inhibition; type: functional, cell-based
[3] = tested on: BaF3; test: Antiproliferative activity against mouse BaF3 cells harbouring ABL-T315I mutant assessed as cell growth inhibition measured after 72 hrs by MTT assay; type: functional, cell-based; details: BaF3, 72 h
[4] = tested on: BaF3; test: cells; details: Mus musculus, BaF3, 72 h
Description: Antiproliferative activity against mouse BaF3 cells harbouring wild type ABL assessed as cell growth inhibition measured after 72 hrs by MTT assay

[5] = tested on: K562; test: Antiproliferative activity against imatinib resistant human K562 cells assessed as cell growth inhibition measured after 24 hrs by MTT assay; type: functional, cell-based; details: K562, 24 h
[6] = tested on: K562; test: Antiproliferative activity against imatinib resistant human K562 cells assessed as cell growth inhibition measured after 48 hrs by MTT assay; type: functional, cell-based; details: K562, 48 h
[7] = Antiproliferative activity against human KM3 cells assessed as cell growth inhibition measured after 24 hrs by MTT assay; type: functional, cell-based; details: KM3, 24 h
[8] = Antiproliferative activity against human KM3 cells assessed as cell growth inhibition measured after 48 hrs by MTT assay; type: functional, cell-based; details: KM3, 48 h
[9] = Antiproliferative activity against human KM3 cells assessed as cell growth inhibition measured after 72 hrs by MTT assay; type: functional, cell-based; details: KM3, 72 h
[10] = Cytotoxicity against human Hematopoietic stem cell assessed as cell growth inhibition measured after 48 hrs by MTT assay; type: toxicity, cell-based; details: hematopoietic stem cells
[11] = tested on: K562; test: Antiproliferative activity against human K562 cells assessed as cell growth inhibition measured after 48 hrs by WST assay; type: functional, cell-based; details: K562, 48 h
[12] = Inhibition of Aurora kinase (unknown origin); parameters: species or system Homo sapiens
[13] = tested on: HL-60; test: animal or person; details: Mus musculus, HL-60, 528 h, read-out: TGI
Description: Antitumor activity against human HL-60 cells xenografted in SCID mouse assessed as tumor growth inhibition at 30 mg/kg, iv measured after 22 days relative to control

[14] = target: Tyrosine-protein kinase Lyn (Homo sapiens, UniProt P07948); test: Inhibition of LYN (unknown origin) in presence of [gamma33P]-ATP and ATP by ELISA method
Sequence of Tyrosine-protein kinase Lyn (P07948 whole entry): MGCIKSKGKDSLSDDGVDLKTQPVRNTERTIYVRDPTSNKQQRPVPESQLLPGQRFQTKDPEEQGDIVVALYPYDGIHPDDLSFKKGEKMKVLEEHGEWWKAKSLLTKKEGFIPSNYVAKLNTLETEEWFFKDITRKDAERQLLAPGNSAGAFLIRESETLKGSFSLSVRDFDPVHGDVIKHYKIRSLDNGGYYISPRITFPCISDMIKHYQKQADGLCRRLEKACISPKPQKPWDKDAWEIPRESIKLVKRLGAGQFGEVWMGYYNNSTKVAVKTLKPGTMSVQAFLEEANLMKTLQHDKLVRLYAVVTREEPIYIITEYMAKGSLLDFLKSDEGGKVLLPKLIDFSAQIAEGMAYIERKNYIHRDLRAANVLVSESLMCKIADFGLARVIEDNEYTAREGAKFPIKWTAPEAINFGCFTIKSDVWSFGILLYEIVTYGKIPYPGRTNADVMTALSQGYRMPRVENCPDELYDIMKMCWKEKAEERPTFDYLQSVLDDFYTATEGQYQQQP

[15] = Tmax in BALB/c mouse at 30 mg/kg, po via gavage; type: ADME, organism-based; details: in vivo
[16] = Cmax in BALB/c mouse at 30 mg/kg, po via gavage; type: ADME, organism-based; parameters: dose 30 mg/kg, route po; details: in vivo
[17] = Half life in BALB/c mouse at 30 mg/kg, po via gavage; type: ADME, organism-based; details: in vivo
[18] = Oral bioavailability in BALB/c mouse at 30 mg/kg via gavage; type: ADME, organism-based; details: in vivo
[19] = AUC in BALB/c mouse at 30 mg/kg, po via gavage; type: ADME, organism-based; parameters: dose 30 mg/kg, route po; details: in vivo
[20] = tested on: K562; test: Antiproliferative activity against imatinib resistant human K562 cells assessed as cell growth inhibition measured after 48 to 72 hrs by MTS assay; type: functional, cell-based
[21] = target: Protein cereblon/Tyrosine-protein kinase ABL1/Breakpoint cluster region protein (Homo sapiens, UniProt P00519+P11274+Q96SW2); test: Protac activity at CRBN/BCR-ABL in human K562 cells assessed as reduction in BCR-ABL protein levels incubated for 6 hrs by Western blotting analysis; type: cell-based
Sequence of Protein cereblon/Tyrosine-protein kinase ABL1/Breakpoint cluster region protein (P00519 whole entry): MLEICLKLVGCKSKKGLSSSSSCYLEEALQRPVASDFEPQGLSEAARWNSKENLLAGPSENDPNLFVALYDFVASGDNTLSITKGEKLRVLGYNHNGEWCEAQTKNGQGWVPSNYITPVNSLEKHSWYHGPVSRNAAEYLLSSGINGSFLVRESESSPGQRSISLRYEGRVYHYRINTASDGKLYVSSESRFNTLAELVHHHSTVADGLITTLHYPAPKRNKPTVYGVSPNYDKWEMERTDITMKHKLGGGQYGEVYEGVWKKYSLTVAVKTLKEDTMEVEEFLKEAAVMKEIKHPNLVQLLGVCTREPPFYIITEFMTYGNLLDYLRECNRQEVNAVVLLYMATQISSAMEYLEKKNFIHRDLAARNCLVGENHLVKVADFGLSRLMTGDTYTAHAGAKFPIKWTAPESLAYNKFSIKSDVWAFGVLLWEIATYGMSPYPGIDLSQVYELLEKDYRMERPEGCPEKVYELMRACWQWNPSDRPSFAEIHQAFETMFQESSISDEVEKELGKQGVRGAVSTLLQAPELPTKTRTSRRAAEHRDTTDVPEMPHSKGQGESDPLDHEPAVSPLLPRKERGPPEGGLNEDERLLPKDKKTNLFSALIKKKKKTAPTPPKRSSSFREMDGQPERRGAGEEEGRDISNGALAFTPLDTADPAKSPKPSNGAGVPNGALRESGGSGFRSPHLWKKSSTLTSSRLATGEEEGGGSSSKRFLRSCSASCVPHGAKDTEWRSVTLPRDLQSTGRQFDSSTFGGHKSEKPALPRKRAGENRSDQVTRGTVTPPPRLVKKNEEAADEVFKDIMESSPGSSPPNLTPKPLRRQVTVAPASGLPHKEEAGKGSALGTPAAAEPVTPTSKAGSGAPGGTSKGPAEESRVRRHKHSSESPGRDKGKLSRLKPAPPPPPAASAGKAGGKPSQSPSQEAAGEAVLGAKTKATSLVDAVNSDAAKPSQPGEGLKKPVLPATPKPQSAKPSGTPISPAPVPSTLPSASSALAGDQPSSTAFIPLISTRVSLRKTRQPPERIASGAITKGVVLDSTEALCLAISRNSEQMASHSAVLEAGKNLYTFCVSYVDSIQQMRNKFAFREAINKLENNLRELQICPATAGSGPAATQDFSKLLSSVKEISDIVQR
Sequence of Protein cereblon/Tyrosine-protein kinase ABL1/Breakpoint cluster region protein (P11274 whole entry): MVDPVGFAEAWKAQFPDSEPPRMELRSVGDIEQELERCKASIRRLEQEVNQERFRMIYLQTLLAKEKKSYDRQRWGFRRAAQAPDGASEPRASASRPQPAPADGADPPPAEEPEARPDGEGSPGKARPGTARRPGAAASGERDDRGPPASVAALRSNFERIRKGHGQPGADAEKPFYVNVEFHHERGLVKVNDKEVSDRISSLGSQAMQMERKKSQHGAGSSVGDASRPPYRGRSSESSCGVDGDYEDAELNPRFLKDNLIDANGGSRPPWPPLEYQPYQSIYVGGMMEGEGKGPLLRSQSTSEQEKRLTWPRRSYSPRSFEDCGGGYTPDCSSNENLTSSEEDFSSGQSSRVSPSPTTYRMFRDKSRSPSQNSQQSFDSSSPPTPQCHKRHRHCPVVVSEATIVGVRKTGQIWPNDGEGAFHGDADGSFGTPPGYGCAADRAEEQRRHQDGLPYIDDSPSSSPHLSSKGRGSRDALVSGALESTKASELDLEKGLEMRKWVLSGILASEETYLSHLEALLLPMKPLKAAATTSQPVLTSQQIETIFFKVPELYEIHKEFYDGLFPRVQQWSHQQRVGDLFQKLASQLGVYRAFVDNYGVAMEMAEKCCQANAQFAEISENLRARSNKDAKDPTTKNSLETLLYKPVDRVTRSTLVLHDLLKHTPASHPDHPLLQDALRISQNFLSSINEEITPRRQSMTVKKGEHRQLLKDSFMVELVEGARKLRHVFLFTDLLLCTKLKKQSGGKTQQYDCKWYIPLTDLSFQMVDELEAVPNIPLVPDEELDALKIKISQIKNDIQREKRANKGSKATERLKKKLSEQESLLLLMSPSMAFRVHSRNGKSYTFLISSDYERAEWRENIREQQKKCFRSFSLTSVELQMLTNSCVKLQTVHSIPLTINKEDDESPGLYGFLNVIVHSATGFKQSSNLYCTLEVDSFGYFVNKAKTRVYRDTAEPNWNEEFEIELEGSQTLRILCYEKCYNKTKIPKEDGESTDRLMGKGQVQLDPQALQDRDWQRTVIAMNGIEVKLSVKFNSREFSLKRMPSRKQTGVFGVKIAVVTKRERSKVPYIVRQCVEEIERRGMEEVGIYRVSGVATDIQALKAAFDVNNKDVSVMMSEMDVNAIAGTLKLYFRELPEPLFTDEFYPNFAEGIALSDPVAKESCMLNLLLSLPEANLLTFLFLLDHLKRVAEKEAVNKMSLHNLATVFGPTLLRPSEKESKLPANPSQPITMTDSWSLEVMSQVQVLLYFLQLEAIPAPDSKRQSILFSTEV
Sequence of Protein cereblon/Tyrosine-protein kinase ABL1/Breakpoint cluster region protein (Q96SW2 whole entry): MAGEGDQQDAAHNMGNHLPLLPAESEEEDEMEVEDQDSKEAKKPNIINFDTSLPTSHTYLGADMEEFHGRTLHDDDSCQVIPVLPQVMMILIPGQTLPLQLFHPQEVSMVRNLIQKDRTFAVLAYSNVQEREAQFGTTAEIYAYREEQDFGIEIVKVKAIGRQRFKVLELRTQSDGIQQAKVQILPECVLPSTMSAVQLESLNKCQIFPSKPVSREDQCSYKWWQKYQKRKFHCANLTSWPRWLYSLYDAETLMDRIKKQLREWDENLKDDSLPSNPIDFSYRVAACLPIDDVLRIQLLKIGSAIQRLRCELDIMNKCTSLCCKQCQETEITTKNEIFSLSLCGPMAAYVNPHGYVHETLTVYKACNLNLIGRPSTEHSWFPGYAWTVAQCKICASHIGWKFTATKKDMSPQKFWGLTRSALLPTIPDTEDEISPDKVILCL

[22] = target: Tyrosine-protein kinase ABL1 (Homo sapiens, UniProt P00519); test: Binding affinity to human recombinant His-tagged full length ABL1 expressed in baculovirus expression system by TR-FRET assay
Sequence of Tyrosine-protein kinase ABL1 (P00519 whole entry): as the sequence (P00519 whole entry) above

[23] = tested on: K562; test: Antiproliferative activity against human K562 cells assessed as cell growth inhibition measured after 24 hrs by WST-8 assay; type: functional, cell-based; details: K562, 24 h
[24] = tested on: KCL-22; test: Antiproliferative activity against human KCL-22 cells assessed as cell growth inhibition measured after 24 hrs by WST-8 assay; type: functional, cell-based; details: KCL-22, 24 h
[25] = tested on: KU812 cell line; test: Antiproliferative activity against human KU812 cell line assessed as cell growth inhibition measured after 24 hrs by WST-8 assay; type: functional, cell-based; details: KU812, 24 h

Sequence of Bcr/Abl fusion protein (P00519 whole entry, the tested form may be a part): as the sequence (P00519 whole entry) above
Sequence of Bcr/Abl fusion protein (P11274 whole entry, further chain, the tested form may be a part): as the sequence (P11274 whole entry) above

pIC50 [1]: 8.92
Compound: Cc1cn(-c2cc(NC(=O)c3ccc(C)c(Nc4nccc(-c5cnccn5)n4)c3)cc(C(F)(F)F)c2)cn1 [RADOTINIB]

pIC50 [3]: 7.96 | pIC50 [4]: 7.89
Compound: O=C(Nc1c[nH]nc1-c1nc2ccc(CN3CCOCC3)cc2[nH]1)NC1CC1 [AT-9283]

IC50 [2]: 0.5 µg/mL (≈ 0.669 µM)
Compound: COc1cc2c3cc1Oc1c(OC)c(OC)cc4c1[C@@H](Cc1ccc(OC(=O)c5ccc(Cl)cc5)c(c1)Oc1ccc(cc1)C[C@@H]3N(C)CC2)N(C)CC4

pIC50 [11]: 8.07
Compound: CN[C@@H](C)C(=O)N[C@H](C(=O)N1CCC[C@H]1c1nc(C(=O)c2ccc(OCCOCCOCCOCC(=O)N3CCN(c4cc(Nc5ncc(C(=O)Nc6c(C)cccc6Cl)s5)nc(C)n4)CC3)cc2)cs1)C1CCCCC1

pIC50 [14]: 7.72 | Tmax [15]: 2 h | Cmax [16]: 661 ng/mL | half-life [17]: 1 h | bioavailability [18]: 32% | AUC [19]: 2290 ng·h/mL
Compound: Cc1ccc(NC(=O)c2ccc(CN3CC[C@H](N(C)C)C3)c(C(F)(F)F)c2)cc1Nc1nccc(-c2cncnc2)n1 [BAFETINIB]

DC50 [21]: 10 nM | pIC50 [22]: 9.27 | pIC50 [23]: 8.05
Compound: CN[C@@H](C)C(=O)N[C@H](C(=O)N1CCC[C@H]1c1nc(C(=O)c2cccc(OCCCOCC(=O)N3CCN(c4cc(Nc5ncc(C(=O)Nc6c(C)cccc6Cl)s5)nc(C)n4)CC3)c2)cs1)C1CCCCC1
pIC50 [24]: 8.09 | pIC50 [25]: 8.17

Second part, the compound before the results:

Compound: COC(=O)C[C@](O)(CCCC(C)(C)O)C(=O)O[C@@H]1C(OC)=C[C@]23CCCN2CCc2cc4c(cc2[C@H]13)OCO4 [OMACETAXINE MEPESUCCINATE]
IC50 [2]: 0.0439 µg/mL (≈ 0.0804 µM)

Compound: COc1cc2c3cc1Oc1c(OC)c(OC)cc4c1[C@@H](Cc1ccc(O)c(c1)Oc1ccc(cc1)C[C@@H]3N(C)CC2)N(C)CC4 [BERBAMINE]
pIC50 [5]: 4.77 | pIC50 [6]: 4.95 | IC50 [7]: 8.17 µg/mL (≈ 13.4 µM) | IC50 [8]: 5.09 µg/mL (≈ 8.36 µM) | IC50 [9]: 3.84 µg/mL (≈ 6.31 µM) | IC50 at 48 h [10]: 185 µg/mL (≈ 304 µM)

Compound: CO[C@H](C(=O)N1Cc2[nH]nc(NC(=O)c3ccc(N4CCN(C)CC4)cc3)c2C1)c1ccccc1
pIC50 [12]: 7.89 | inhibition in vivo at 30 mg/kg [13]: 98%

Compound: CC(C)=CCC[C@]1(C)C=Cc2c(O)c3c(c(CC=C(C)C)c2O1)O[C@]12C(=C[C@@H]4C[C@H]1C(C)(C)O[C@@]2(C/C=C(/C)C(=O)O)C4=O)C3=O [GAMBOGIC ACID]
pIC50 [20]: 6.21
